Data published in patent US20240254121A1, “ALKYLAMIDE SUBSTITUTED, ANNULATED IMIDAZOLES AND USE THEREOF AS INSECTICIDES” (Bayer Aktiengesellschaft, priority 2021, published 2024).

Legend:
Assay type in all cases: in vivo
[1] = test system: adult mosquitoes Aedes aegypti strain MONHEIM; experiment: Aedes aegypti test (AEDSAE surface treatment & contact assay); details: 24 hours after contact, read-out: efficacy (mortality); for mortality at 4 mg/m2: surface concentration 4 mg/m^2, 30 minutes exposure; for mortality at 20 mg/m2: surface concentration 20 mg/m^2, 30 minutes exposure
Outline: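 Test compound dissolved in acetone (2 mg/ml) with 2000 ppm rapeseed oil methyl ester, applied to glazed tile and dried. Adult Aedes aegypti MONHEIM placed on surface for 30 min exposure; % mortality scored 24 h after contact.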

[2] = test system: adult mosquitoes Culex quinquefasciatus strain P00; experiment: Culex quinquefasciatus test (CULXFA surface treatment & contact assay); details: surface concentration 20 mg/m^2, 30 minutes exposure, 24 hours after contact, read-out: efficacy (mortality)
Outline: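 Compound dissolved in acetone (2 mg/ml) with 2000 ppm RME and applied to glazed tile; after acetone evaporation, adults exposed to dried surface for 30 min. Percent mortality scored 24 h after contact.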

[3] = test system: adult brown dog ticks (Rhipicephalus sanguineus); experiment: Rhipicephalus sanguineus in-vitro contact test with adult brown dog ticks; details: 1 μg/cm^2 (=100 g/ha), after 48 hours
Protocol: Rhipicephalus sanguineus—In-Vitro Contact Tests with Adult Brown Dog Ticks
(§1) 9 mg compound is solved in 1 mL acetone and diluted with acetone to the desired concentration. 250 μL of the test solution is filled in 25 mL glass test tubes and homogeneously distributed on the inner walls by rotation and tilting on a shaking device (2 h at 30 rpm). With a compound concentration of 900 ppm, an inner surface of 44.7 cm^2 and a homogeneous distribution, a dose of 5 μg/cm^2 is achieved.
After the solvent has evaporated, each test tube is filled with 5-10 adult brown dog ticks (Rhipicephalus sanguineus), closed with a perforated lid and incubated in a lying position at room temperature and relative humidity. After 48 hours efficacy is determined. The ticks are patted on the ground of the tubes and are incubated on a heating plate at 45-50° C. for at most 5 minutes. Immotile or uncoordinated moving ticks, which are not able to escape the heat by climbing upwards, are marked as dead or moribund.
An efficacy of 100% means all ticks are dead or moribund; 0% means no ticks are dead or moribund.

[4] = test system: adult flies Musca domestica strain WHO-N; experiment: Musca domestica test (MUSCDO surface treatment & contact assay); details: 24 hours after contact, read-out: efficacy (mortality); for mortality at 4 mg/m2: surface concentration 4 mg/m^2, 30 minutes exposure; for mortality at 20 mg/m2: surface concentration 20 mg/m^2, 30 minutes exposure
Outline: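 Compound dissolved in acetone (2 mg/ml) with 2000 ppm rapeseed oil methyl ester and dried onto a glazed tile. Adult flies exposed to the treated surface for 30 min. Percent mortality scored 24 h after contact.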

[5] = test system: fall armyworm larvae (Spodoptera frugiperda); experiment: Spodoptera frugiperda spray test; details: 168 h, maize leaf sections, after 7 days
Outline: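 Percent kill of Spodoptera frugiperda caterpillars read at day 7. Larvae placed on dried Zea mays leaf pieces previously sprayed with test preparation, made from acetone plus DMF and diluted with emulsifier-containing water (1000 ppm).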

[6] = test system: larvae of the banded cucumber beetle (Diabrotica balteata); experiment: Diabrotica balteata spray test; details: 168 h, 100 g/ha (=32 μg/well), wheat seeds, after 7 days, read-out: efficacy (seedling growth)
Outline: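 Germinated wheat seedlings (5 per well, on agar) sprayed with compound in acetone/dimethylformamide diluted in water with 1000 ppm emulsifier, then infested with 10-20 Diabrotica balteata larvae. Efficacy (%) scored after 7 days: 100% = seedling growth as untreated, uninfested control; 0% = no seedlings grown.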

[7] = test system: cattle tick larvae (Rhipicephalus microplus); experiment: Rhipicephalus (Boophilus) microplus in-vitro contact test, larval cattle tick (strain Parkhurst, resistant against synthetic pyrethroids); details: 1 μg/cm^2 (=100 g/ha), after 48 hours, read-out: efficacy (larvae dead or moribund)
Outline: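 Larvae exposed by contact to a dried acetone film on glass; a 900 ppm solution yields 5 μg/cm^2. Scoring after 48 h at 27° C. counts dead plus moribund larvae as efficacy.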

[8] = test system: green peach aphid (Myzus persicae); experiment: Myzus persicae spray test; details: foliar, 120 h, 100 g/ha, Chinese cabbage leaf disks, after 5 days
Protocol: Myzus persicae—Spray Test • Solvent: 78.0 parts by weight acetone • 1.5 parts by weight dimethylformamide • Emulsifier: alkylarylpolyglycol ether
(§2) To produce a suitable preparation of active compound, 1 part by weight of active compound is mixed with the stated amount of solvents and is diluted with water, containing an emulsifier concentration of 1000 ppm, to the desired concentration. Further test concentrations are prepared by dilution with emulsifier containing water.
Chinese cabbage (Brassica pekinensis) leaf disks infected with all instars of the green peach aphid (Myzus persicae), are sprayed with a preparation of the active ingredient of the desired concentration.
After 5 days mortality in % is determined. 100% means all aphids have been killed and 0% means none of the aphids have been killed.

[9] = test system: adult cat fleas (Ctenocephalides felis); experiment: Ctenocephalides felis in-vitro contact test, adult cat flea; details: 1 μg/cm^2 (=100 g/ha), after 48 hours
Protocol: Ctenocephalides felis—In-Vitro Contact Tests Adult Cat Flea
as §1
After the solvent has evaporated, each test tube is filled with 5-10 adult cat fleas (Ctenocephalides felis), closed with a perforated lid and incubated in a lying position at room temperature and relative humidity.
After 48 hours efficacy is determined. The fleas are patted on the ground of the tubes and are incubated on a heating plate at 45-50° C. for at most 5 minutes. Immotile or uncoordinated moving fleas, which are not able to escape the heat by climbing upwards, are marked as dead or moribund.
An efficacy of 100% means all fleas are dead or moribund; 0% means no fleas are dead or moribund.

[10] = test system: brown planthopper (Nilaparvata lugens); experiment: Nilaparvata lugens spray test; details: 96 h, rice plants, after 4 days
Protocol: Nilaparvata lugens—Spray Test • Solvent: 78.0 parts by weight of acetone • 1.5 parts by weight of dimethylformamide • Emulsifier: alkylarylpolyglycol ether
as §2
Rice plants (Oryza sativa) are sprayed with a preparation of the active ingredient of the desired concentration and the plants are infested with the brown planthopper (Nilaparvata lugens).
After 4 days mortality in % is determined. 100% means all planthoppers have been killed and 0% means none of the planthoppers have been killed.

[11] = test system: adult Blattella germanica strain PAULINIA; experiment: whole plant or invertebrate; details: read-out: efficacy (mortality)
Protocol: Blattella germanica Test (BLTTGE Surface Treatment & Contact Assay) • Solvent: Aceton+2000 ppm rapeseed oil methyl ester (RME)
In order to produce a sufficient, active ingredient containing solution it is necessary to solve the test compound in the solvent-mix (acetone at 2 mg/ml/RME 2000 ppm). This solution is pipetted onto a glazed tile and after evaporation of the acetone, adult animals of the species Blattella germanica strain PAULINIA are placed onto the dried surface. The exposure time is 30 minutes.
Mortality in percent (%) is determined 24 hours after contact of the insects to the treated surface. 100% mortality means that all tested insects are dead, whereas 0% means that no insect died.

[12] = test system: larvae of the southern green stink bug (Nezara viridula); experiment: Nezara viridula spray test; details: 96 h, barley plants, after 4 days
Outline: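 Mortality (%) of stink bug larvae on treated barley (Hordeum vulgare) was scored 4 days after infestation. Test solutions came from an acetone/DMF concentrate diluted with water containing 1000 ppm emulsifier and were sprayed onto plants before larvae were added.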

SMILES	mortality at 4 mg/m2 [1] [%]	mortality at 20 mg/m2 [1] [%]	mortality at 20 mg/m2 [2] [%]	efficacy (ticks dead or moribund) [3] [%]	mortality at 4 mg/m2 [4] [%]	mortality at 20 mg/m2 [4] [%]	mortality at 100 g/ha [5] [%]	pest or weed control at 32 µg/disc, 100 g/ha [6] [%]	pest or weed control at 1 µg/cm2, 100 g/ha [7] [%]	mortality at 100 g/ha [8] [%]	efficacy (fleas dead or moribund) [9] [%]	mortality at 500 g/ha [10] [%]	mortality at 20 mg/m2 [11] [%]	mortality at 500 g/ha [12] [%]
C[C@H](NC(=O)c1cc(C(F)(F)F)cc(C(F)(F)F)c1)c1nc2cccnc2n1-c1ccc(C#N)cn1 [Example I-15]	80 to 100	80 to 100	80 to 100	80	80 to 100	80 to 100	100	100	100	90	80	90	–	–
CC(NC(=O)c1cc(OC(F)(F)F)cc(OC(F)(F)F)c1)c1nc2cccnc2n1-c1ncccn1 (centres unmarked) [Example I-31]	80 to 100	80 to 100	80 to 100	–	80 to 100	80 to 100	100	100	100	90	–	–	80 to 100	100
